pIC50: −log10 of the molar value. Read-outs that look alike come from different tables or passages of the source.
Assays:
[1] = system: MCF7 cells (breast tumor cells) WT; experiment: Test B: cell proliferation/viability assay (CellTiter-Glo) on MCF7 WT; assay type: cell-based; conditions: Homo sapiens, MCF7, 168 h, 7 days of compound exposure
Outline: (§1)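 Compound exposure lasted 7 days (3-0.000001 μM final, 9 points) in phenol red-free MEM with 5% charcoal dextran-stripped FBS. The mutant lines grew without estradiol. Luminescent signal, minus medium-only background, was expressed as percent of untreated cells.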

[2] = system: MCF7 cells expressing mutant estrogen receptor Tyr 537 Ser; experiment: Test B: cell proliferation/viability assay (CellTiter-Glo) on MCF7 Tyr 537 Ser mutant; assay type: cell-based; conditions: Homo sapiens, MCF7, 168 h, MCF7 cells expressing ER Tyr 537 Ser mutant, 7 days of compound exposure, read-out: proliferation MCF7 Y537S IC50
Outline: as §1

ERα in MCF7 cells = ERα in MCF7 cells (Homo sapiens (Human), UniProt P03372); experiment: Test C: estrogen receptor degradation activity, ERα in cell western assay in MCF7 cells; assay type: cell-based; conditions: for DC50: 4 hours post compound addition, ERα in cell western, read-out: Degradation IC50; for % Degradation at 3 μM: 4 hours, relative to fulvestrant
Outline: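 Steps: seed MCF7 in phenol red-free medium containing 5% charcoal-dextran stripped FBS; next day add compound, final 3–0.000018 μM; after 4 h fix with 5% formalin plus 0.1% Triton; stain ERα overnight, then secondary at 37 °C for 60 min with Syto-64 at 2 μM; scan green and red intensities.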

[3] = target: His6-ERα298-554 Y537S mutant (ERα ligand-binding domain) (Homo sapiens (Human), UniProt P03372, Y537S); experiment: Test A: biochemical antagonist activity, LanthaScreen TR-FRET ERα coactivator assay, Y537S mutant; conditions: read-out: Antagonism Y537S IC50
Outline: (§2)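 IC50 values come from a 4-parameter logistic fit of the 520:495 nm TR-FRET ratio after overnight room-temperature incubation. The mix held 0.5 nM ERα 298–554 LBD, Tb-labelled anti-His6 antibody, 250 nM PGC1a peptide and 3 nM or 10 nM estradiol, pH 7.4 phosphate buffer with DTT.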

[4] = target: His6-ERα298-554 D538G mutant (ERα ligand-binding domain) (Homo sapiens (Human), UniProt P03372, D538G); experiment: Test A: biochemical antagonist activity, LanthaScreen TR-FRET ERα coactivator assay, D538G mutant; conditions: read-out: Antagonism D538G IC50
Outline: as §2

[5] = target: His6-ERα298-554 WT (ERα ligand-binding domain) (Homo sapiens (Human), UniProt P03372); experiment: Test A: biochemical antagonist activity, LanthaScreen TR-FRET ERα coactivator assay, WT; conditions: read-out: Antagonism WT IC50
Outline: as §2

[6] = system: MCF7 cells expressing mutant estrogen receptor Asp 538 Gly; experiment: Test B: cell proliferation/viability assay (CellTiter-Glo) on MCF7 Asp 538 Gly mutant; assay type: cell-based; conditions: Homo sapiens, MCF7, 168 h, MCF7 cells expressing ER Asp 538 Gly mutant, 7 days of compound exposure, read-out: proliferation MCF7 D538G IC50
Outline: as §1

[7] = asterisk (*): protocol using 10 nM estradiol

Chain of His6-ERα298-554 D538G mutant (ERα ligand-binding domain) (P03372 298-554 D538G): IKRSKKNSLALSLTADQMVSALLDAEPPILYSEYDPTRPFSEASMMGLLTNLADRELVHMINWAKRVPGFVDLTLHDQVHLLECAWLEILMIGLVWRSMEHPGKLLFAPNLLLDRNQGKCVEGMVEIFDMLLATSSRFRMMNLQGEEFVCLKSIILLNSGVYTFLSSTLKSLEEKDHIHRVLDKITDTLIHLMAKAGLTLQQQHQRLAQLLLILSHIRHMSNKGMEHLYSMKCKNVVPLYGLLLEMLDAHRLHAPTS
Chain of His6-ERα298-554 WT (ERα ligand-binding domain) (P03372 298-554): as the sequence (P03372 298-554 D538G) above, with G241D counted along it
Chain of His6-ERα298-554 Y537S mutant (ERα ligand-binding domain) (P03372 298-554 Y537S): as the sequence (P03372 298-554 D538G) above, with Y240S, G241D counted along it
Chain of ERα in MCF7 cells (P03372 whole entry): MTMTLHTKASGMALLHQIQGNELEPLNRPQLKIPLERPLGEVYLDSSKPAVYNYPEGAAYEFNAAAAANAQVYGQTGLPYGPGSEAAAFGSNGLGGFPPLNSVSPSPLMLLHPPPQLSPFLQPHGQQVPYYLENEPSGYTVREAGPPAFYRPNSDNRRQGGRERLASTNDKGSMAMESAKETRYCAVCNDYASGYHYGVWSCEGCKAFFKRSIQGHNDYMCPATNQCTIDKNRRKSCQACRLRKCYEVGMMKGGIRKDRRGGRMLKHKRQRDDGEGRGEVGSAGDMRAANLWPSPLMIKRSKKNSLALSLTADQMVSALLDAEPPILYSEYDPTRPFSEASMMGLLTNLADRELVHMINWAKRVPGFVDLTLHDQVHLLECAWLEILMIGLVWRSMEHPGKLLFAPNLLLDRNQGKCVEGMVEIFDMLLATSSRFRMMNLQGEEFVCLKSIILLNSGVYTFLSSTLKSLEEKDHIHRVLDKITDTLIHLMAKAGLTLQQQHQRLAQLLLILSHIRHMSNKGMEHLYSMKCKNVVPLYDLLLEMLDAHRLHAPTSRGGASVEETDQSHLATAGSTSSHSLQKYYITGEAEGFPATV

| Compound | pIC50 [1] | pIC50 [2] | DC50 (ERα in MCF7 cells) [nM] | % Degradation at 3 μM (ERα in MCF7 cells) [%] | pIC50 [3, 7] | pIC50 [4, 7] | pIC50 [5, 7] | pIC50 [6] | pIC50 ([3]; protocol with 3 nM estradiol) | pIC50 ([4]; protocol with 3 nM estradiol) | pIC50 ([5]; protocol with 3 nM estradiol) |
| --- | --- | --- | --- | --- | --- | --- | --- | --- | --- | --- | --- |
| CCOc1ccc(C2=C(c3ccc(O[C@H]4CCN(CCCF)C4)cc3)c3ccc(O)cc3SC2)c(F)c1Cl [Example 63, 3-(3-chloro-4-ethoxy-2-fluoro-phenyl)-4-[4-[(3S)-1-(3-fluoropropyl)pyrrolidin-3-yl]oxyphenyl]-2H-thiochromen-7-ol] | 8.30 | < 6.00 | 0.3 | 86 | 5.61 | < 5.40 | 6.50 | 8.30 | – | – | – |
| Cc1ccc(C2=C(c3ccc(O[C@H]4CCN(CCCF)C4)cc3)c3ccc(O)cc3SC2)c(F)c1F [Example 64, 3-(2,3-difluoro-4-methyl-phenyl)-4-[4-[(3S)-1-(3-fluoropropyl)pyrrolidin-3-yl]oxyphenyl]-2H-thiochromen-7-ol] | 9.00 | 8.30 | 0.2 | 81 | 6.69 | 6.31 | 7.62 | 9.15 | – | – | – |
| CC(C)(C)OC(=O)Nc1ccc(C2=C(c3ccc(O[C@H]4CCN(CCCF)C4)cc3)c3ccc(O)cc3SC2)c(F)n1 [Example 65, tert-butyl N-[6-fluoro-5-[4-[4-[(3S)-1-(3-fluoropropyl)pyrrolidin-3-yl]oxyphenyl]-7-hydroxy-2H-thiochromen-3-yl]-2-pyridyl]carbamate] | 7.68 | 6.24 | 38 | 71 | < 5.40 | < 5.40 | 5.91 | 7.68 | – | – | – |
| Oc1ccc2c(c1)SCC(c1ccc(SC(F)(F)F)cc1)=C2c1ccc(O[C@H]2CCN(CCCF)C2)cc1 [Example 66, 4-[4-[(3S)-1-(3-fluoropropyl)pyrrolidin-3-yl]oxyphenyl]-3-[4-(trifluoromethylsulfanyl)phenyl]-2H-thiochromen-7-ol] | 8.70 | 8.10 | 0.2 | 84 | – | – | – | 8.70 | 6.44 | 5.74 | 7.23 |
| Oc1ccc2c(c1)SCC(c1ccc3ncccc3c1)=C2c1ccc(O[C@H]2CCN(CCCF)C2)cc1 [Example 67, 4-[4-[(3S)-1-(3-fluoropropyl)pyrrolidin-3-yl]oxyphenyl]-3-(6-quinolyl)-2H-thiochromen-7-ol] | 7.92 | 7.07 | 1 | 90 | 5.89 | 5.74 | 6.92 | 7.80 | – | – | – |
| CCOc1nccc(C2=C(c3ccc(O[C@H]4CCN(CCCF)C4)cc3)c3ccc(O)cc3SC2)c1F [Example 69, 3-(2-ethoxy-3-fluoro-4-pyridyl)-4-[4-[(3S)-1-(3-fluoropropyl)pyrrolidin-3-yl]oxyphenyl]-2H-thiochromen-7-ol] | 9.70 | 9.10 | 0.2 | 81 | < 5.40 | < 5.40 | 5.80 | 9.70 | – | – | – |
| Nc1ccc(C2=C(c3ccc(O[C@H]4CCN(CCCF)C4)cc3)c3ccc(O)cc3SC2)c(F)n1 [Example 72, 3-(6-amino-2-fluoro-3-pyridyl)-4-[4-[(3S)-1-(3-fluoropropyl)pyrrolidin-3-yl]oxyphenyl]-2H-thiochromen-7-ol] | 8.70 | 9.00 | 0.2 | 91 | 6.97 | 6.69 | 7.96 | 9.30 | – | – | – |
| CC1(C)CNc2ccc(C3=C(c4ccc(O[C@H]5CCN(CCCF)C5)cc4)c4ccc(O)cc4SC3)cc21 [Example 73, 3-(3,3-dimethylindolin-5-yl)-4-[4-[(3S)-1-(3-fluoropropyl)pyrrolidin-3-yl]oxyphenyl]-2H-thiochromen-7-ol] | 7.02 | 6.42 | 6 | 86 | < 5.40 | < 5.40 | 5.96 | 6.92 | – | – | – |

Reference: patent US11149031B2, “Substituted N-(3-fluoropropyl)-pyrrolidine compounds, processes for their preparation and therapeutic uses thereof” (SANOFI, priority 2016, dated 2021)
